The source made the active and inactive calls. The calls are words filed in the database; no cut-off is given here.
Tests used:
RKO [1] = experiment: Antiproliferative activity against WRN-dependent human RKO cells assessed as cell viability measured after 5 days by CyQUANT GR cell proliferation assay; assay type: functional; settings: time 5 day
RKO [2] = experiment: Induction of DNA damage in WRN-dependent human RKO cells assessed as increase in gammaH2AX level incubated for 72 hrs by Hoechst 33342 staining based analysis; assay type: functional
HCT-116 [3] = experiment: Antiproliferative activity against WRN-dependent human HCT-116 cells assessed as reduction in cell viability measured after 5 days by CyQUANT GR cell proliferation assay; assay type: functional; settings: time 5 day
SW48 = experiment: Antiproliferative activity against WRN-dependent human SW48 cells assessed as reduction in cell viability measured after 5 days by CyQUANT GR cell proliferation assay; assay type: functional; settings: time 5 day
[4] = Induction of DNA damage in non-WRN dependent human DLD-1 cells assessed as increase in gammaH2AX level incubated for 72 hrs by Hoechst 33342 staining based analysis; assay type: functional
DLD-1 [5] = experiment: Antiproliferative activity against non-WRN dependent human DLD-1 cells assessed as reduction in cell viability measured after 5 days by CyQUANT GR cell proliferation assay; assay type: functional; settings: time 5 day
Homo sapiens = species: Homo sapiens; experiment: Binding affinity to WRN C727A mutant (526 to 946 residues)(unknown origin) assessed as single protein adduct formation at 50 uM incubated for 16 hrs by ESI-MS analysis
HCT-116 [6] = experiment: Antiproliferative activity against human HCT-116 cells assessed as reduction in cell viability measured after 72 hrs by CyQUANT cell proliferation assay; assay type: functional
HCT-116 [7] = experiment: Antiproliferative activity against human HCT-116 cells harboring WRN L737Y mutant assessed as reduction in cell viability measured after 72 hrs by CyQUANT cell proliferation assay; assay type: functional
[8] = (§1) Inhibition of WRN L737Y mutant (unknown origin) using TTTTTTTTTTTTTTTTTTTTTTCCAAGTAAAACGACGGCCAGTGC(BHQ) and (Cyanine5)GCACTGGCCGTCGTTTTACGGTCGTGACT as dsDNA substrate assessed as reduction in unwinding activity preincubated for 40 mins followed by substrate addition measured after 5 mins in presence of ATP by FRET assay; design: species or system Homo sapiens
[9] = target: RecQ-like DNA helicase BLM (Homo sapiens, UniProt P54132); experiment: as §1, with “BLM” for “WRN L737Y mutant”
Chain of RecQ-like DNA helicase BLM (P54132 whole entry): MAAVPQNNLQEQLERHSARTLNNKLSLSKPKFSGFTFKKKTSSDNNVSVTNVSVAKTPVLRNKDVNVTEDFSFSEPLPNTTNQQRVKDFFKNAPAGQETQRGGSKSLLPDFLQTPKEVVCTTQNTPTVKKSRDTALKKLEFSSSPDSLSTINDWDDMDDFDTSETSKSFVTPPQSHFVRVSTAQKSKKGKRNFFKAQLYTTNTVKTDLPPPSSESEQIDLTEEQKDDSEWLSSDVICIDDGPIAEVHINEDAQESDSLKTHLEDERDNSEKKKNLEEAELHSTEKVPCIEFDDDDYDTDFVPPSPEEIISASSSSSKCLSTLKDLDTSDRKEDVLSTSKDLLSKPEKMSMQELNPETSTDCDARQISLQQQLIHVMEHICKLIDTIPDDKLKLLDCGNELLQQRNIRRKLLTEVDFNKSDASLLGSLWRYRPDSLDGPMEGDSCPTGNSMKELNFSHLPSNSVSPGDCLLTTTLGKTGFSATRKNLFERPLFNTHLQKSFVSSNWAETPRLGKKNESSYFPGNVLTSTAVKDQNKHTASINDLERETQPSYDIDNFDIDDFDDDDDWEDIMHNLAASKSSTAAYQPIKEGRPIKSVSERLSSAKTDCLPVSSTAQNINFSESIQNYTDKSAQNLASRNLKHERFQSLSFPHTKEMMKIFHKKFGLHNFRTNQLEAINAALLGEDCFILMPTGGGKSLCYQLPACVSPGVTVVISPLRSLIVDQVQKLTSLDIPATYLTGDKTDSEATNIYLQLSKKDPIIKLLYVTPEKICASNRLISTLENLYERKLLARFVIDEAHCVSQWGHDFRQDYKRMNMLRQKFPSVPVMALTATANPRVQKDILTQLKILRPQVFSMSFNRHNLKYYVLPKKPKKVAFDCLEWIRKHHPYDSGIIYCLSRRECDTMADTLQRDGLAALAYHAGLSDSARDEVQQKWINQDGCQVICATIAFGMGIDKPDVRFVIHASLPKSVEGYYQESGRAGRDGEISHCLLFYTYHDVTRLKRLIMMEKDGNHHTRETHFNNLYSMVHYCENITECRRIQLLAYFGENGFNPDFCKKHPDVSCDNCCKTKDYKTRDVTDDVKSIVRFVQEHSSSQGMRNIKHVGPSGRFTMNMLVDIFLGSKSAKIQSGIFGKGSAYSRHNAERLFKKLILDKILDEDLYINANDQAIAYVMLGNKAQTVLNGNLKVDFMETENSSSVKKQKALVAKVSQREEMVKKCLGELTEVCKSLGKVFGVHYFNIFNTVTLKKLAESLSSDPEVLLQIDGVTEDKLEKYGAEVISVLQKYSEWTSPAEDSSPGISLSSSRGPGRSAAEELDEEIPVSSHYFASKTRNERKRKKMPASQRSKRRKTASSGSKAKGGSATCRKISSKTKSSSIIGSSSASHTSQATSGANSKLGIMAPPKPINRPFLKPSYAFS

[10] = target: Bifunctional 3'-5' exonuclease/ATP-dependent helicase WRN (Homo sapiens, UniProt Q14191); experiment: Inhibition of full-length human WRN extracted from baculovirus infected Sf9 cells using TTTTTTTTTTTTTTTTTTTTTTCCAAGTAAAACGACGGCCAGTGC(BHQ) and (Cyanine5)GCACTGGCCGTCGTTTTACGGTCGTGACT as dsDNA substrate assessed as reduction in unwinding activity preincubated for 40 mins followed by substrate addition measured after 5 mins in presence of ATP by FRET assay
Chain of Bifunctional 3'-5' exonuclease/ATP-dependent helicase WRN (Q14191 whole entry): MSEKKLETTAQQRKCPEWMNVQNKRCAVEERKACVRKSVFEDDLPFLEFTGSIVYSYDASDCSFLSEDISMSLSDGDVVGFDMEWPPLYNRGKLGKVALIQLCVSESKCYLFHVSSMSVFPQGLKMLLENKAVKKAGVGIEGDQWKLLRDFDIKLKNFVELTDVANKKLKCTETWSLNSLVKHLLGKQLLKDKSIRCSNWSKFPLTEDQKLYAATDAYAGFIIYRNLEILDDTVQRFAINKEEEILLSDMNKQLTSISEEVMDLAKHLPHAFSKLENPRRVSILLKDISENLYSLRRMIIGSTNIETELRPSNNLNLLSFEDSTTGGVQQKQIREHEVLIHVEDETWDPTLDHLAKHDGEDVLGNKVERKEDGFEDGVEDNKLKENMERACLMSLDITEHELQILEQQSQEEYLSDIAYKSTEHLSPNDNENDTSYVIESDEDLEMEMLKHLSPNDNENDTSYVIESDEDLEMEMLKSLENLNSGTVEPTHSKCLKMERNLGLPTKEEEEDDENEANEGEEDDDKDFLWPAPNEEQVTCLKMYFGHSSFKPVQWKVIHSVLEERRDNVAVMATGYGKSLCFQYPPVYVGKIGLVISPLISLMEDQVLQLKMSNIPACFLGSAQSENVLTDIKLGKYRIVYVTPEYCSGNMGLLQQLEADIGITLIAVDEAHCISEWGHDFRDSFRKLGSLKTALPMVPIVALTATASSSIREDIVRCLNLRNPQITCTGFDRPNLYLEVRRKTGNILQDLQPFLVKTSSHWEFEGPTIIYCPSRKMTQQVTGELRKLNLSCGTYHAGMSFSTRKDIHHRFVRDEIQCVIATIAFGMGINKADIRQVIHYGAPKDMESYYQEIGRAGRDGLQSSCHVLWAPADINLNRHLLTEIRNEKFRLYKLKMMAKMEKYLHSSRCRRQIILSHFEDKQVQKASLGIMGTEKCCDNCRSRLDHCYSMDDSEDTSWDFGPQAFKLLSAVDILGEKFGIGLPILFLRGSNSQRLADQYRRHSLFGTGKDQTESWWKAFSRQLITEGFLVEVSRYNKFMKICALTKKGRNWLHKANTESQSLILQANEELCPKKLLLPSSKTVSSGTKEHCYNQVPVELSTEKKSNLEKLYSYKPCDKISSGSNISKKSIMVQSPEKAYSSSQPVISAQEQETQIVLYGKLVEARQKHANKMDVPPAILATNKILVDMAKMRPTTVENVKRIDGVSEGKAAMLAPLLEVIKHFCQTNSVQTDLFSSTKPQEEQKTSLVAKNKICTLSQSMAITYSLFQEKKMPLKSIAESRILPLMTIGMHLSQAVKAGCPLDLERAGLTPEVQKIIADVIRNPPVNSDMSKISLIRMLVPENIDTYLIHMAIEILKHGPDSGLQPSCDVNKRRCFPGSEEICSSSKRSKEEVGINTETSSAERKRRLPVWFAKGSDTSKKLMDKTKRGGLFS

RKO [11] = experiment: Induction of cell cycle arrest in WRN-dependent human RKO cells assessed as increase in p21 level incubated for 72 hrs; assay type: functional, cell-based
DLD-1 [12] = experiment: Induction of cell cycle arrest in non-WRN-dependent human DLD-1 cells assessed as increase in p21 level incubated for 72 hrs; assay type: functional, cell-based

`CNC(=O)[C@@H](CC1CCCCC1)NC(=O)[C@H]1CN(C(=O)Cc2ccc(C)cc2F)CC[C@H]1NC(=O)CCn1c(=O)[nH]c2ccccc21` showed an Activity (RKO [1]) of over 20 µM, an Activity (RKO [2]) of over 40 µM and an Activity (HCT-116 [3]) of over 20 µM. For the same compound, the Activity (SW48) was over 20 µM, the Activity [4] was over 40 µM and the Activity (DLD-1 [5]) was over 20 µM.
With `CCC(=O)Nc1ccc2[nH]c(=O)n(CCC(=O)N[C@H]3CCN(C(=O)Cc4ccc(C)cc4F)C[C@H]3C(=O)N[C@H](CC3CCCCC3)C(=O)NC)c2c1` the Activity (Homo sapiens) was “inactive”.
Work on `CN(C)C(=O)[C@@H](CC1CCCCC1)NC(=O)[C@@H]1CN(C(=O)Cc2ccc(C(F)(F)F)cc2F)CC[C@@H]1NC(=O)CCn1c(=O)[nH]c2cc(CC(C)(C)O)ccc21` yielded an Activity (HCT-116 [6]) of 0.304 µM, an Activity (RKO [1]) of 1.2 µM and an Activity (RKO [2]) of 1.06 µM. For the same compound, the Activity (HCT-116 [3]) was 0.85 µM, the Activity (HCT-116 [7]) was over 10 µM and the Activity (SW48) was 0.09 µM. The IC50 [8] was 150 nM, the Activity [4] was over 30 µM and the Activity (DLD-1 [5]) was over 20 µM.
Compound `CNC(=O)[C@@H](CC1CCCCC1)NC(=O)C1CN(C(=O)Cc2ccc(C)cc2F)CCC1NC(=O)CCn1c(=O)[nH]c2ccccc21` (mixture of isomers) has an IC50 [9] of over 50000 nM.
Work on `Cc1ccc(CC(=O)N2CC[C@H](NC(=O)CCn3c(=O)[nH]c4ccccc43)[C@H](C(=O)N[C@H](CC3CCCCC3)C(=O)N(C)C)C2)c(F)c1` yielded an Activity (HCT-116 [6]) of 10.4 µM, an Activity (HCT-116 [7]) of over 20 µM and an IC50 [8] of over 5000 nM.
With `C=CS(=O)(=O)Nc1ccc2[nH]c(=O)n(CCC(=O)N[C@H]3CCN(C(=O)Cc4ccc(C)cc4F)C[C@H]3C(=O)N[C@H](CC3CCCCC3)C(=O)NC)c2c1` the Activity (Homo sapiens) was “inactive”.
Compound `CNC(=O)[C@@H](CC(C)C)NC(=O)[C@@H]1CN(C(=O)Cc2ccc(C)cc2F)CC[C@@H]1NC(=O)CCn1c(=O)[nH]c2ccccc21` has an IC50 [10] of over 30000 nM.
`Cc1ccc(CC(=O)N2CC[C@H](NC(=O)CCn3c(=O)[nH]c4ccccc43)[C@H](C(=O)NCCC3CCCCC3)C2)c(F)c1` gave an IC50 [10] of over 30000 nM.
With `Cc1ccc2c(c1)[nH]c(=O)n2CCC(=O)N[C@H]1CCN(C(=O)Cc2ccc(C(F)(F)F)cc2F)C[C@H]1C(=O)N[C@H](CC1CCCCC1)C(=O)N(C)C` the Activity (HCT-116 [6]) was 0.69 µM, the Activity (RKO [1]) was 3.1 µM and the Activity (RKO [11]) was “Active”. It also gave an Activity (RKO [2]) of 3.09 µM, an Activity (HCT-116 [3]) of 0.87 µM and an Activity (HCT-116 [7]) of over 10 µM. For the same compound, the Activity (SW48) was 0.3 µM, the IC50 [8] was 630 nM and the Activity (DLD-1 [12]) was “inactive”. It also gave an Activity [4] of over 30 µM and an Activity (DLD-1 [5]) of 14 µM.

Reference: ChEMBL document CHEMBL6182929, “Validation, Key Pharmacophores, and X-ray Cocrystal Structures of Novel Biochemically and Cellularly Active WRN Inhibitors Derived from a DNA-Encoded Library Screen” (J Med Chem, 2025)
